Entries after “also recorded” stand apart in the source; their conditions may differ. Where no end group is shown, it is not given here. [ ]: non-standard residue; d: D form. Lys(N3) = [N-]=[N+]=NCCCC[C@H](N)C(=O)O
Tests used:
human NPY1-R = target: T1, human NPY1-R (Homo sapiens, UniProt P25929); assay: FRET assay at Y1-R, mitigation of adenosine stimulated cAMP at the A2b receptor (EPAC2/H188, HEK293); format: cell-based; details: cells expressing Y1-R, partial antagonist
T1 construct: host or cells: HEK293 (H188 FRET reporter)
T1 sequence (P25929 1-384): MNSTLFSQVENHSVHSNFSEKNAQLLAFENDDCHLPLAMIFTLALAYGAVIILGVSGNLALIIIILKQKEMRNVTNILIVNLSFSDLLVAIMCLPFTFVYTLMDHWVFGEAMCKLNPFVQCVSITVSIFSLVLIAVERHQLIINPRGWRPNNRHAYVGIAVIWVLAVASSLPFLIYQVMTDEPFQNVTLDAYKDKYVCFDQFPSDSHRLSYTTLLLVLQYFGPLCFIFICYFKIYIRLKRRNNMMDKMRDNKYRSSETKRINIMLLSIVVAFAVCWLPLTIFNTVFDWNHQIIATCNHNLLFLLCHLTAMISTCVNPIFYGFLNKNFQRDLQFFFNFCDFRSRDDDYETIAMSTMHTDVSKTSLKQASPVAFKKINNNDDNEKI

human NPY2-R = target: T2, human NPY2-R (Homo sapiens, UniProt P49146); assay: FRET assay at Y2-R, mitigation of adenosine stimulated cAMP at the A2b receptor (EPAC2/H188, HEK293); format: cell-based
T2 construct: host or cells: HEK293 (H188 FRET reporter)
T2 sequence (P49146 1-381): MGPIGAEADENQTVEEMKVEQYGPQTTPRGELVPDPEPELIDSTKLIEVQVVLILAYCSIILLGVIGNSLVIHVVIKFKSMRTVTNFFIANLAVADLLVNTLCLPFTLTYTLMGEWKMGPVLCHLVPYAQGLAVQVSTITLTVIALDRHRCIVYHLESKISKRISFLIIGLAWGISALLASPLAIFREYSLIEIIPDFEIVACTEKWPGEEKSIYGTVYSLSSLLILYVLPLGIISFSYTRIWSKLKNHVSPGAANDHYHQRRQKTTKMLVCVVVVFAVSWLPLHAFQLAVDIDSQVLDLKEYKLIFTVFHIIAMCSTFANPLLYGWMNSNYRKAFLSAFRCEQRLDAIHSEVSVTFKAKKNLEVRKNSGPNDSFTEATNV

IPGTT in shrews = format: in vivo, shrew
[1] = test system: perifused isolated rat islets; assay: Cytokine-induced damage of perifused isolated rat islets (OCR, membrane permeability); format: cell-based; details: cytokines IFN-γ, TNF-α, IL-1β
Excerpt: For this evaluation, a customized perifusion system was used that both maintains islet health while continuously assessing β-cell viability by OCR.

rat pancreatic islets = assay: Static glucose stimulated insulin secretion (GSIS) in rat islets; format: cell-based; details: 10 mM glucose, 50 nM peptides
Procedure: Rat islet isolation and culture. Islets were harvested from Sprague-Dawley rats (approximately 250 g; Charles River) and anesthetized by intraperitoneal injection of pentobarbital sodium (150 mg/kg rat). Islets were prepared and purified as described^56. Islets were then cultured for 18 h in a 37° C., 5% CO2 incubator prior to the experiments in RPMI medium supplemented with 10% heat inactivated fetal bovine serum (Invitrogen). Static measurement of ISR. ISR was determined statically with multiple conditions, as described previously^57. Briefly, islets were handpicked into a petri dish containing KRB, 0.1% BSA, and 3 mM glucose and incubated at 37° C., 5% CO2 for 60 min. Subsequently, islets were picked into wells of 96-well plates containing desired amounts of glucose and agents as indicated and incubated for an additional 60 min. At the end of this period, supernatant was assayed for insulin.

rat islets = assay: Insulin secretion rate in rat islet cell perifusion, exposure and washout; format: cell-based
human islets = assay: Insulin release in human islets; format: cell-based
human GLP-1R = human GLP-1R (Homo sapiens, UniProt P43220); assay: FRET reporter assay tracking cAMP stimulation at the GLP-1R (EPAC2/H188 sensor, HEK293 cells); format: cell-based; details: FIG. 7
human GLP-1R, sequence (P43220 24-463): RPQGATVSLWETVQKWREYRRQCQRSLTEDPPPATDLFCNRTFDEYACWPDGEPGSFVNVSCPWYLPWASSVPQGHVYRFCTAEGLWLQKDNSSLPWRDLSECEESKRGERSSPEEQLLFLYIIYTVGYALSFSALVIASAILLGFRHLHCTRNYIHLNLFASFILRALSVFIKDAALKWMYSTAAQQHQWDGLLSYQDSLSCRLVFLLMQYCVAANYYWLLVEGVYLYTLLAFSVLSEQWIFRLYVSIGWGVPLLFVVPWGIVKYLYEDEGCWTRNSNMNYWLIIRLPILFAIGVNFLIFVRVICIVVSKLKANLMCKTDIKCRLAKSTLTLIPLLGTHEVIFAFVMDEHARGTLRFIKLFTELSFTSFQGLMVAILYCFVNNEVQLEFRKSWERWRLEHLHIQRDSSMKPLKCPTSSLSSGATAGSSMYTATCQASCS

[2] = 5-day treatment in diet-induced obese (DIO) rats; format: in vivo, rat; details: diet-induced obese Sprague-Dawley rats, 10 nmol/kg once daily, 5 d
Excerpt: Diet Induced Obese (DIO) rats. To generate DIO rats, young (4-wk of age) lean male Sprague Dawley rats (Charles River Laboratories, Inc. Wilmington, MA; strain code 001) were placed on a high fat diet (HFD; D12492, 60% kcal from fat, Research Diets, New Brunswick, NJ) for 4-5 months prior to the start of the experiments to attain >20% of body fat. During this time, animals had ad libitum access to food and water.
5-day Treatment in DIO rats. DIO Sprague Dawley rats (2 cohorts; 826.1 g n=9, and 642.3 g n=5) were individually housed and the animal room was maintained on a 12-h light/12-hour dark cycle. During the 5-day baseline phase, animals were administered vehicle (0.9% sterile saline solution, injectable) injections just prior to the start of the dark cycle. At the end of the baseline phase, animals were grouped based on body weight, average daily body weight gain, and food intake. […] Throughout the experiment, body weight and food intake (via hopper weighs) were assessed daily just prior to the start of the dark cycle. Fasting blood glucose was tested prior to the baseline phase and at the end of the treatment phase via handheld glucometer (One Tough Ultra).

[3] = Dose escalation study, food intake in rats; format: in vivo, rat
Procedure: Dose Escalation Study. Lean Sprague Dawley rats (350 g) were individually housed in cages capable of recording food intake (Accuscan Diet cages). The animal room was maintained on a 12-h light/12-hour dark cycle. The study design consisted of sequential rounds of a 2-day baseline phase, a 2-day treatment phase, and a 2-day washout phase. Body weight was assessed daily just prior to the start of the dark cycle, food and kaolin intake were available ad libitum and consumption was continuously recorded. Treatment doses were administered just prior to the start of the dark cycle via subcutaneous injection.

[4] = Intraperitoneal glucose tolerance testing after 5-d treatment in rats; format: in vivo, rat; details: 10 nmol/kg, pre-diabetic (DIO) rats
Procedure: DIO Sprague Dawley rats (803.0±102.7 g n=7) were administered a pre-treatment IPGTT with a vehicle injection. Animals were grouped based on body weight, Lee Index (a measure of adiposity; lee index=weight1/3/nasoanal length), and baseline IPGTT blood glucose excursion. […] On treatment day 5, a repeat IPGTT was performed with the assigned treatment. All weights noted are mean±Std. Dev. Metabolic testing. Intraperitoneal glucose tolerance testing (IPGTT) was performed following a 6-h fast such that the glucose bolus occurred at the start of the dark cycle; all animal handling is performed under red light. […] A second baseline sample was obtained 30 minutes later, immediately prior to the dextrose bolus (1.5 g/kg dextrose, 20% solution). Additional blood glucose measurements were taken 7, 15, 30, 45, 60, and 120 minutes post-bolus. All blood glucose measurements were made via handheld glucometers (One Touch Ultra) in duplicate; if the variation between the two measures was >5%, a third measurement was taken.

| Compound | block of GEP44 agonism by antagonist at Y1-R (human NPY1-R) | block of GEP44 agonism by antagonist at Y2-R (human NPY2-R; FRET, cells expressing Y2-R, potent antagonist) | glucoregulation (IPGTT) (IPGTT in shrews) | fall in cytokine-induced OCR [1] | glucose stimulated insulin secretion (GSIS), as ISR (rat pancreatic islets) | insulin secretion rate (ISR) (rat islets; acute exposure) | persistence of the effect on insulin secretion after washout (rat islets; exposure and washout) | insulin release in human islets (human islets) | signalling via the GLP-1R, cAMP production (human GLP-1R) | signalling via the Y2-R, cAMP production (human NPY2-R; FIG. 7) | body weight [2] | fasting blood glucose [2] | food intake [2] | 2-d avg. FI ([3]; 10 nmol/kg/d, rats) | reduction in food intake over 2 days ([3]; 20 nmol/kg daily, lean Sprague-Dawley rats) | 2-d avg. FI ([3]; 30 nmol/kg/d, rats) | reductions in FI ([3]; preliminary dose escalation studies, dose not stated) | food intake (in words) ([3]; rats, dose escalation, 2-d on each dose) | blood glucose during intraperitoneal glucose tolerance testing, GEP44 vs Ex4 [4] |
| --- | --- | --- | --- | --- | --- | --- | --- | --- | --- | --- | --- | --- | --- | --- | --- | --- | --- | --- | --- |
| N=C(N)NCCC[C@H](NC(=O)CC1(CC(=O)N2CCN(C3c4ccccc4NC(=O)c4ccccc43)CC2)CCCC1)C(=O)NCCn1c(=O)n(-c2ccccc2)n(-c2ccccc2)c1=O (stereo partly shown) [BIIE0246, reference compound] | blocked GEP44 agonism | blocked GEP44 agonism |  |  |  |  |  |  |  |  |  |  |  |  |  |  |  |  |  |
| H[dS]QGTFTSDLS[Lys(N3)]YLEEEAVREFIAWLKNGGPSRHYLNLVTRQRY-NH2 [GEP44] |  |  | confirmed glucoregulation | slowed the fall in cytokine-induced OCR | stimulated GSIS; also recorded: significantly increased | significantly increased | more sustained vs. Ex-4 | capable of stimulating insulin release | stimulate cAMP production | stimulate cAMP production | sustained weight loss | reduced fasting blood glucose; also recorded: significant reduction in fasting blood glucose | reduced food intake | −58% | −81.4% | −84% | > 88% | robust reduction of FI; also recorded: robust reduction of food intake | stronger reductions in blood glucose |

From US12384825B2, “Monomeric peptide multi-agonist targeting the GLP1 receptor and NPY receptors” (Syracuse University, priority 2019, dated 2025)
